Assay results as given in the OligoGym collection.
Several values for one entry are separate records, joined by “and”; a condition that tells them apart may be missing. Equal values may be shown once. After the bases stand the sugars from the 5' end (letter, count) and the backbone: PS all phosphorothioate, else s phosphorothioate and o phosphodiester by linkage. Methylation of C is not given here. e = 2'-O-(2-methoxyethyl) (MOE); k = constrained ethyl (cEt); d = 2'-deoxy (DNA); m = 2'-O-methyl

Biological target: HSD17B13
Details: ASO, HepaRG

Sequence	target mRNA inhibition (1 µM)	other results
CACAUATGTGAAGAGC (sugars k3 d1 m1 d8 k3, PS)	65%	
AGTGCCAAACCAATGT (sugars k3 d9 k3 e1, PS)	60%	
GTAGGCTAAACCCTGG (sugars k3 d10 k3, PS)	62%	
CTGTCATAAAGGTGGG (sugars k3 d10 k3, PS)	59%	
TACCAAGAGGGTTTTT (sugars k3 d10 k3, PS)	17%	
GTTTUTAAGAGGCATG (sugars k3 d1 m1 d8 k3, PS)	38%	
AATGAATCATGATTGA (sugars k3 d10 k3, PS)	33%	
AAACCTTGAATGAGTG (sugars k3 d10 k3, PS)	37%	
ACAATCAGGAGTTGCA (sugars k3 d10 k3, PS)	62%	
GAAGACTACATTAACA (sugars k3 d10 k3, PS)	36%	
TTTTAATACGACTTCC (sugars k3 d10 k3, PS)	57%	
TACATATCAATGCCTT (sugars k3 d10 k3, PS)	38%	
TGTAAGAGTCAGTATC (sugars kkdddddddddkekek, PS)	35%	
TTATTATGAGGATCTG (sugars k3 d10 k3, PS)	50%	
ATTTAGAGAGCGATAG (sugars k3 d10 k3, PS)	14%	
TTATGTAATAGCCAGT (sugars k3 d9 k3 e1, PS)	77%	target mRNA inhibition (0.02 µM): 0%; target mRNA inhibition (0.078 µM): 13%; target mRNA inhibition (0.313 µM): 14%; target mRNA inhibition (1.25 µM): 74%; target mRNA inhibition (5 µM): 92%
GTATCTTATAAGACTA (sugars k3 d9 k3 e1, PS)	72%	
GTTGATATTCTGTGGC (sugars k3 d9 k3 e1, PS)	73% and 50%	target mRNA inhibition (0.02 µM): 23%; target mRNA inhibition (0.078 µM): 17%; target mRNA inhibition (0.313 µM): 49%; target mRNA inhibition (1.25 µM): 61%; target mRNA inhibition (5 µM): 55%
CCGAATTATTTCTTGC (sugars k3 d10 k3, PS)	60%	
AGATATTGATATACGA (sugars k3 d10 k3, PS)	20%	
ATGTCCAGGTTGAGAT (sugars k3 d10 k3, PS)	55%	
TCCCTGTGTAAATAAG (sugars k3 d10 k3, PS)	35%	
ATTAACTACTTCACTA (sugars k3 d10 k3, PS)	14%	
ACCACATAGCTAACTC (sugars k3 d10 k3, PS)	50%	
TTGTATTTCGCTACTG (sugars k3 d10 k3, PS)	58%	

Sequence	target mRNA inhibition (1 µM)	other results
TGGGTCCATTGTTTCT (sugars k3 d10 k3, PS)	35%	
TGGTAACGGTGATCAA (sugars k3 d1 m1 d8 k3, PS)	41%	
GTCCACTTGAATTCTG (sugars k3 d10 k3, PS)	18%	
TGCTAGTGCCAAACCA (sugars k3 d1 m1 d8 k3, PS)	80%	target mRNA inhibition (0.02 µM): 7%; target mRNA inhibition (0.078 µM): 29%; target mRNA inhibition (0.313 µM): 46%; target mRNA inhibition (1.25 µM): 67%; target mRNA inhibition (5 µM): 90%
ACTGTCCCAGCATTAT (sugars k3 d10 k3, PS)	40%	
AACAGTCTTAAACCTT (sugars k3 d1 m1 d8 k3, PS)	75%	
CCATAGGACATGGAGA (sugars k3 d10 k3, PS)	68%	target mRNA inhibition (0.02 µM): 7%; target mRNA inhibition (0.078 µM): 12%; target mRNA inhibition (0.313 µM): 31%; target mRNA inhibition (1.25 µM): 76%; target mRNA inhibition (5 µM): 90%
CATTACATATCAATGC (sugars k3 d10 k3, PS)	29%	
AAATTGGCCTCCTGGG (sugars k3 d10 k3, PS)	44%	
TGAAGTTAGTATAGTT (sugars k3 d1 m1 d8 k3, PS)	62%	
TAGGCTAAACCCTGGA (sugars k3 d10 k3, PS)	64%	
TCTATTATGCACTCTA (sugars k3 d10 k3, PS)	55%	
CACCACGATTGTTACA (sugars k3 d10 k3, PS)	36%	
GCTTAATTTTCGGGTT (sugars k3 d10 k3, PS)	36%	
TTCTTGAGAGTGATTG (sugars k3 d10 k3, PS)	52%	
CCTAGTTACAAACCAC (sugars k3 d10 k3, PS)	51%	
GTAAGTATTCCATCTA (sugars k3 d1 m1 d8 k3, PS)	43%	
GCTTTTGTGATCCAAA (sugars k3 d10 k3, PS)	43%	
AGCAGAATTGTGAACG (sugars k3 d10 k3, PS)	67%	
GTTAGAATAGTCTTCA (sugars k3 d10 k3, PS)	46%	
AACTTCACCAACGACT (sugars k3 d10 k3, PS)	0%	
ACTACAAGAGGTTATT (sugars kkdddddddddkekek, PS)	42%	
AGTTTCCTCCACACCG (sugars k3 d10 k3, PS)	28%	
AGCATCAAGACATTCT (sugars k3 d10 k3, PS)	79%	target mRNA inhibition (0.02 µM): 5%; target mRNA inhibition (0.078 µM): 15%; target mRNA inhibition (0.313 µM): 62%; target mRNA inhibition (1.25 µM): 78%; target mRNA inhibition (5 µM): 86%
